Data reported in patent US8865910B2 (priority 2010, dated 2014).
Where two headings read alike, the source gives them in different places.

Assays:
M. tuberculosis H37Rv = conditions: BACTEC 12B medium; cited from earlier work
M. bovis BCG = assay: microbe, parasite or virus in culture; format: cell-based, Mycobacterium bovis BCG; conditions: for inhibition at 100 µg/mL: Mycobacterium tuberculosis variant bovis BCG, BCG, 192 h
dormant tubercle bacilli = conditions: cited from earlier work
M. tuberculosis = assay: Antitubercular activity against active and dormant bacilli of M. tuberculosis; format: cell-based, Mycobacterium tuberculosis H37Ra
[1] = read-out: Antimycobacterial activity % inhibition at 100 μg/ml Aerobic/Active stage
[2] = read-out: Antimycobacterial activity % inhibition at 100 μg/ml Anearobic/Dormant stage

| Compound | inhibition at 100 µg/mL (M. bovis BCG; [1]) | inhibition at 100 µg/mL (M. bovis BCG; [2]) | other results |
| --- | --- | --- | --- |
| CCCSc1nnc(-c2ncc([N+](=O)[O-])n2C)s1 [2-(1-Methyl-5-nitro-1H-imidazol-2-yl)-5-(n-propyl)thio-1,3,4-thiadiazole] |  |  | inhibition effects in the primary screening (M. tuberculosis H37Rv): 90% |
| O=[N+]([O-])c1ccc(-c2nnc(SCc3ccccc3[N+](=O)[O-])s2)o1 [2-(5-nitro-2-furyl)-5-(2-nitrobenzyl)thio-1,3,4-thiadiazole] |  |  | inhibition effects in the primary screening (M. tuberculosis H37Rv): 90% |
| C#CCSc1nnc(-c2ccc([N+](=O)[O-])o2)s1 [2-(5-nitro-2-furyl)-5-(2-propynyl)thio-1,3,4-thiadiazole] |  |  | inhibition effects in the primary screening (M. tuberculosis H37Rv): 90% |
| O=[N+]([O-])c1cccc(CSc2nnc(-c3ccc([N+](=O)[O-])o3)s2)c1 [2-(5-nitro-2-furyl)-5-(3-nitrobenzyl)thio-1,3,4-thiadiazole] |  |  | inhibition effects in the primary screening (M. tuberculosis H37Rv): 90% |
| O=[N+]([O-])c1ccc(CSc2nnc(-c3ccc([N+](=O)[O-])o3)s2)cc1 [2-(5-nitro-2furyl)-5-(4-nitrobenzyl)thio-1,3,4-thiadiazole] |  |  | inhibition effects in the primary screening (M. tuberculosis H37Rv): 90% |
| C#CCS(=O)(=O)c1n[nH]c(C)n1 [7b, 3-methyl-5-(prop-2-ynylsulfonyl)-1H-1,2,4-triazole] | 92% | 82% |  |
| C#CCS(=O)(=O)c1nc(C(C)(C)C)n[nH]1 [7c, 3-tert-butyl-5-(prop-2-ynylsulfonyl)-1H-1,2,4-triazole] | 76% | 74% |  |
| C#CCS(=O)(=O)c1n[nH]c(-c2ccc([N+](=O)[O-])cc2)n1 [7d, 3-(4-nitrophenyl)-5-(prop-2-ynylsulfonyl)-1H-1,2,4-triazole] | 96% | 91% |  |
| C#CCS(=O)(=O)c1n[nH]c(-c2ccc(OC)cc2)n1 [7e, 3-(4-methoxyphenyl)-5-(prop-2-ynylsulfonyl)-1H-1,2,4-triazole] | 88% | 82% |  |
| C#CCS(=O)(=O)c1n[nH]c(-c2ccc(Cl)cc2)n1 [7f, 3-(4-chlorophenyl)-5-(prop-2-ynylsulfonyl)-1H-1,2,4-triazole] | 88% | 86% |  |
| C#CCSc1nc(C(C)(C)C)nn1CC=C [8a, 1-allyl-3-tert-butyl-5-(prop-2-ynylthio)-1H-1,2,4-triazole] | 76% | 74% |  |
| C#CCSc1nc(C(C)(C)C)n(CC=C)n1 [8b, 1-allyl-5-tert-butyl-3-(prop-2-ynylthio)-1H-1,2,4-triazole] | 96% | 91% |  |
| C#CCn1nc(C(C)(C)C)nc1SCC=C [8c, 5-(allylthio)-3-tert-butyl-1-(prop-2-ynyl)-1H-1,2,4-triazole] | 98% | 79% |  |
| C#CCn1nc(SCC=C)nc1C(C)(C)C [8d, 3-(allylthio)-5-tert-butyl-1-(prop-2-ynyl)-1H-1,2,4-triazole] | 98% | 82% |  |
| C#CCSc1ncnn1CC=C [9a, 1-allyl-5-(prop-2-ynylthio)-1H-1,2,4-triazole] | 40% | 22% |  |
| C#CCSc1nc(C)nn1CC=C [10a, 1-allyl-3-methyl-5-(prop-2-ynylthio)-1H-1,2,4-triazole] | 98% | 93% |  |
| C#CCSc1nc(C)n(CC=C)n1 [10b, 1-allyl-5-methyl-3-(prop-2ynylthio)-1H-1,2,4-triazole] | 98% | 92% |  |
| C#CCn1nc(Br)nc1Br [11a, 3,5-dibromo-1-(prop-2-ynyl)-1H-1,2,4-triazole] | 97% | 20% |  |
| C=CCn1nc(Br)nc1Br [11b, 1-allyl-3,5-dibromo-1H-1,2,4-triazole] | 12% | 21% |  |
| C=C(C)Cn1nc(Br)nc1Br [11c, 3,5-dibromo-1-(2-methylallyl)-1H-1,2,4-triazole] | 9% | 19% |  |
| Brc1nc(Br)n(Cc2cn(Cc3ccccc3)nn2)n1 [11d, 1-benzyl-4-((3,5-dibromo-1H-1,2,4-triazol-1-yl)methyl)-1H-1,2,3-triazole] | 2% | 13% |  |
| OC(Cn1cncn1)(Cn1cncn1)c1ccc(F)cc1F [Fluconazole] |  |  | Effectiveness against dormant tubercle bacilli (dormant tubercle bacilli): not effective |
| C=CCSc1n[nH]c(-c2ccc(Cl)cc2)n1 [compound 4f, 3-(allylthio)-5-(4-chlorophenyl)-1H-1,2,4-triazole] | 98% | 91% | Effectiveness against active and dormant stage of the bacilli (M. bovis BCG; M. bovis BCG, active and dormant stage): effective against both active as well as dormant stage; Effectiveness against active and dormant stage of the bacilli (M. tuberculosis): effective against both active as well as dormant stage |
| CC(C)(C)C(O)(CCc1ccc(Cl)cc1)Cn1cncn1 (stereo not shown) [tebuconazole] |  |  | Effectiveness against dormant tubercle bacilli (dormant tubercle bacilli): not effective |
